Experimental data taken from US20240398811A1, “PRC2 INHIBITORS FOR USE IN TREATING BLOOD DISORDERS” (ORIC Pharmaceuticals, Inc., priority 2021, published 2024).
pIC50: −log10 of the molar value.

Biological target: purified human, His-tagged PRC2 complex (Homo sapiens (Human), UniProt O75530)
Experiment: Hot Spot HMT assay, inhibition of PRC2 enzymatic activity
Type: biochemical
Conditions: 10 nM PRC2 complex, 1 μM 3H-SAM, core histone H3, 10-point dose-response
Method in brief: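 Methyl transfer from 1 μM tritiated SAM onto 0.05 mg/ml core histone H3, catalysed by 10 nM His/Flag-tagged human PRC2 holoenzyme, was run 1 hr at 30° C after a 20 min compound preincubation. Serial dilutions began at 1.0 μM; product captured on filters and counted.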

Chain of purified human, His-tagged PRC2 complex (O75530 whole entry): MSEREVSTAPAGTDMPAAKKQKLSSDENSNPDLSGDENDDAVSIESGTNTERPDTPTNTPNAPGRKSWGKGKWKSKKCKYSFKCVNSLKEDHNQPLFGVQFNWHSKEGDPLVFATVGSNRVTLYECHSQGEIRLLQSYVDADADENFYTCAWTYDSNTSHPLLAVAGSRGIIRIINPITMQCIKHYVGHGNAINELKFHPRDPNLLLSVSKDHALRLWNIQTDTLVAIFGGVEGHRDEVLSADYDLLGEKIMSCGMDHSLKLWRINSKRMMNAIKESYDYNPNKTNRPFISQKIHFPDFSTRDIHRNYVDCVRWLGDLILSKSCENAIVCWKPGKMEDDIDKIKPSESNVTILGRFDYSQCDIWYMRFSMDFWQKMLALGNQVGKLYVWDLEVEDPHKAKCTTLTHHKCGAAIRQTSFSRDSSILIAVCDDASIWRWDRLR
Chain of purified human, His-tagged PRC2 complex (Q15910 whole entry partner): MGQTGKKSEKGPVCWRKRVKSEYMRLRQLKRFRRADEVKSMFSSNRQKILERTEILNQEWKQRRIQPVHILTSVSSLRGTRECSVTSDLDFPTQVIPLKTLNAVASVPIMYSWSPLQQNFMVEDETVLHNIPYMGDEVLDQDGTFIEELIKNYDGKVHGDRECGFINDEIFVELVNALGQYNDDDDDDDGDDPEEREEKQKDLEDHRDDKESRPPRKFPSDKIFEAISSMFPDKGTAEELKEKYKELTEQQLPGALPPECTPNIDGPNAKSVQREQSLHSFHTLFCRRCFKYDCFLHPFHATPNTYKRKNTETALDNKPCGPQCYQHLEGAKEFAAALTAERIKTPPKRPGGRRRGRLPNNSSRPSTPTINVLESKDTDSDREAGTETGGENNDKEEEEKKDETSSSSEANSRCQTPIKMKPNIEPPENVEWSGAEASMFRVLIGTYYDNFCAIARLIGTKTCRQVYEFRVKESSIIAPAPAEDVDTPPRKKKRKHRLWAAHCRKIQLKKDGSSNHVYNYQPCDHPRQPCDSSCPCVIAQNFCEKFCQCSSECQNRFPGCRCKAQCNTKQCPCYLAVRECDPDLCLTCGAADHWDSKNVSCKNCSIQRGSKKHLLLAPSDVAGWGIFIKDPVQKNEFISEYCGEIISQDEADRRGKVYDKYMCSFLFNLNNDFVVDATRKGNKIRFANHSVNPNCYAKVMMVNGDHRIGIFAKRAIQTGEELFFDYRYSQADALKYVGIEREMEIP
Chain of purified human, His-tagged PRC2 complex (Q15022 whole entry partner): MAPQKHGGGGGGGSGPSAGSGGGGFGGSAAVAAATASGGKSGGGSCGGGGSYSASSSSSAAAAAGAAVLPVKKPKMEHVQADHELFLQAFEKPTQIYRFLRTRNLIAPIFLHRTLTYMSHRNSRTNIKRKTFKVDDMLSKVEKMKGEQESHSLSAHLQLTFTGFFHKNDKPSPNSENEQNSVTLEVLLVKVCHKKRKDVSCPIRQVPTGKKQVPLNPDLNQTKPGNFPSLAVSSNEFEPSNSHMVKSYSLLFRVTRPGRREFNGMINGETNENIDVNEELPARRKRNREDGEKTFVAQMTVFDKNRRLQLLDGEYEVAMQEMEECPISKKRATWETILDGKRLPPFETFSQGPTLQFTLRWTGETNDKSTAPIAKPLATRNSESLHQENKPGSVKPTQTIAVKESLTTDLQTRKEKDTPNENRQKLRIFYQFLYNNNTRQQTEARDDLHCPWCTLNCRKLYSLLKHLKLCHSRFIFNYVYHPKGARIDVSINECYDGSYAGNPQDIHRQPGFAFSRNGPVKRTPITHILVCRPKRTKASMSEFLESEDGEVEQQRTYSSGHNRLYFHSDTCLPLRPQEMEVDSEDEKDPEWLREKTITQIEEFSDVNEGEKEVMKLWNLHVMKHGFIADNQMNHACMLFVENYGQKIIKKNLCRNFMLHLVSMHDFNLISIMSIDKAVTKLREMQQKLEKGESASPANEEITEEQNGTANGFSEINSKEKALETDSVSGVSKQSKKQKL
Chain of purified human, His-tagged PRC2 complex (Q6ZN18 whole entry partner): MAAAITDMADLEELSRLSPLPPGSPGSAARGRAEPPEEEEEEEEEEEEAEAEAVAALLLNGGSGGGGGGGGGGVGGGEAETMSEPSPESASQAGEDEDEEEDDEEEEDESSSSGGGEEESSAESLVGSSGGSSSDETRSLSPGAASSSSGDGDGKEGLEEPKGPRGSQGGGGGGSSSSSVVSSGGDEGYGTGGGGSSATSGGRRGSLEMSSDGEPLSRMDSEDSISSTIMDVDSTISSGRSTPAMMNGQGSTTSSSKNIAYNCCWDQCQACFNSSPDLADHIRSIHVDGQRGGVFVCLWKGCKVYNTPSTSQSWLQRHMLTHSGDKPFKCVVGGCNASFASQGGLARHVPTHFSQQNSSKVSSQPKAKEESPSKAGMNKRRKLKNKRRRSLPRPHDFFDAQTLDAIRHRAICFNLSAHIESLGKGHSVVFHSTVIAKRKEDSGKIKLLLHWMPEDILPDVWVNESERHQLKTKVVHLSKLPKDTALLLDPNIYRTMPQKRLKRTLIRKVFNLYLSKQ
Chain of purified human, His-tagged PRC2 complex (Q09028 whole entry partner): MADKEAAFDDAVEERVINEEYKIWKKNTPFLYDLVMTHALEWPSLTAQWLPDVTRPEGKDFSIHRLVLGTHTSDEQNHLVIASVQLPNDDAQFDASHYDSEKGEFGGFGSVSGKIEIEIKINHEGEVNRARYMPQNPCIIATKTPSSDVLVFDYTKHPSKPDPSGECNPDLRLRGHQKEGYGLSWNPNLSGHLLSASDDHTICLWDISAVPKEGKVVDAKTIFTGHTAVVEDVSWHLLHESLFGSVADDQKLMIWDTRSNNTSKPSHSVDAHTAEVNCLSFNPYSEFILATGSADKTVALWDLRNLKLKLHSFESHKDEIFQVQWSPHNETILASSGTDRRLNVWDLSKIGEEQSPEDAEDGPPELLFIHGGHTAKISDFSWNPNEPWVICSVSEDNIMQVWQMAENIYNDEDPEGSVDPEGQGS

Row | Structure (SMILES) | pIC50
1 | Cc1cn(-c2cnc(NCc3c(F)ccc4c3CCO4)n3cc(C(=O)O)nc23)cn1 [Example 4, 5-(((5-fluoro-2,3-dihydrobenzofuran-4-yl)methyl)amino)-8-(4-methyl-1H-imidazol-1-yl)imidazo[1,2-c]pyrimidine-2-carboxylic Acid] | > 7.00
2 | N#Cc1cn2c(NCc3c(F)ccc4c3CCO4)ncc(-c3ccc(CN4CC5CC5C4)cc3)c2n1 (stereo not drawn) [Example 52, 8-(4-((3-azabicyclo[3.1.0]hexan-3-yl)methyl)phenyl)-5-(((5-fluoro-2,3-dihydrobenzofuran-4-yl)methyl)amino)imidazo[1,2-c]pyrimidine-2-carbonitrile] | > 7.00
3 | CN(C)CCn1nccc1-c1cnc(NCc2c(F)ccc3c2CCO3)n2cc(C#N)nc12 [Example 230, 8-(1-(2-(dimethylamino)ethyl)-1H-pyrazol-5-yl)-5-(((5-fluoro-2,3-dihydrobenzofuran-4-yl)methyl)amino)imidazo[1,2-c]pyrimidine-2-carbonitrile] | > 7.00
4 | Cc1nn(C(C)C)cc1-c1cnc(NCc2c(F)ccc3c2CCO3)n2cc(C(N)=O)nc12 [Example 13, 5-(((5-fluoro-2,3-dihydrobenzofuran-4-yl)methyl)amino)-8-(1-isopropyl-3-methyl-1H-pyrazol-4-yl)imidazo[1,2-c]pyrimidine-2-carboxamide] | > 7.00
5 | CN(C)Cc1ccc(-c2cnc(NCc3c(F)ccc4c3CCO4)n3cc(C#N)nc23)c(F)c1F [Example 37, 8-(4-((dimethylamino)methyl)-2,3-difluorophenyl)-5-(((5-fluoro-2,3-dihydrobenzofuran-4-yl)methyl)amino)imidazo[1,2-c]pyrimidine-2-carbonitrile] | > 7.00
6 | CN(C)Cc1ccc(-c2cnc(NCc3c(F)ccc4c3CCO4)n3cc(C#N)nc23)c(F)c1 [Example 61, 8-(4-((dimethylamino)methyl)-2-fluorophenyl)-5-(((5-fluoro-2,3-dihydrobenzofuran-4-yl)methyl)amino)imidazo[1,2-c]pyrimidine-2-carbonitrile] | > 7.00
7 | CC(=O)Nc1cc(-c2cnc(NCc3c(F)ccc4c3CCO4)n3cc(C#N)nc23)ccn1 [Example 131, N-(4-(2-cyano-5-(((5-fluoro-2,3-dihydrobenzofuran-4-yl)methyl)amino)imidazo[1,2-c]pyrimidin-8-yl)pyridin-2-yl)acetamide] | > 7.00
8 | CN1CCN(C(=O)c2ccc(-c3cnc(NCc4c(F)ccc5c4CCO5)n4cc(C#N)nc34)cc2)CC1 [Example 115, 5-(((5-fluoro-2,3-dihydrobenzofuran-4-yl)methyl)amino)-8-(4-(4-methylpiperazine-1-carbonyl)phenyl)imidazo[1,2-c]pyrimidine-2-carbonitrile] | > 7.00
9 | CN(C)Cc1ccc(-c2cnc(NCc3c(F)ccc4c3CCO4)n3cc(C#N)nc23)c(Cl)c1F [Example 83, 8-(2-chloro-4-((dimethylamino)methyl)-3-fluorophenyl)-5-(((5-fluoro-2,3-dihydrobenzofuran-4-yl)methyl)amino)imidazo[1,2-c]pyrimidine-2-carbonitrile] | > 7.00
10 | N#Cc1cn2c(NCc3c(F)ccc4c3CCO4)ncc(-c3ccc(C4CCN4)cc3)c2n1 (stereo not drawn) [Example 226, 8-(4-(azetidin-2-yl)phenyl)-5-(((5-fluoro-2,3-dihydrobenzofuran-4-yl)methyl)amino)imidazo[1,2-c]pyrimidine-2-carbonitrile] | 6.30 to 7.00
11 | Cn1nncc1-c1cnc(NCc2c(F)ccc3c2CCO3)n2cc(C#N)nc12 [Example 143, 5-(((5-fluoro-2,3-dihydrobenzofuran-4-yl)methyl)amino)-8-(1-methyl-1H-1,2,3-triazol-5-yl)imidazo[1,2-c]pyrimidine-2-carbonitrile] | > 7.00
12 | Cc1c(-c2cnc(NCc3c(F)ccc4c3CCO4)n3cc(C(N)=O)nc23)cnn1C(C)C [Example 16, 5-(((5-fluoro-2,3-dihydrobenzofuran-4-yl)methyl)amino)-8-(1-isopropyl-5-methyl-1H-pyrazol-4-yl)imidazo[1,2-c]pyrimidine-2-carboxamide] | > 7.00
13 | Cn1nccc(-c2cnc(NCc3c(F)ccc4c3CCO4)n3cc(C#N)nc23)c1=O [Example 194, 5-(((5-fluoro-2,3-dihydrobenzofuran-4-yl)methyl)amino)-8-(2-methyl-3-oxo-2,3-dihydropyridazin-4-yl)imidazo[1,2-c]pyrimidine-2-carbonitrile] | 6.30 to 7.00
14 | Cc1ccc(-c2cnc(NCc3c(F)ccc4c3CCO4)n3cc(C#N)nc23)c(C)n1 [Example 67, 8-(2,6-dimethylpyridin-3-yl)-5-(((5-fluoro-2,3-dihydrobenzofuran-4-yl)methyl)amino)imidazo[1,2-c]pyrimidine-2-carbonitrile] | > 7.00
15 | N#Cc1cn2c(NCc3c(F)ccc4c3CCO4)ncc(-c3ccc(CN4CC(O)C4)cc3)c2n1 [Example 150, 5-(((5-fluoro-2,3-dihydrobenzofuran-4-yl)methyl)amino)-8-(4-((3-hydroxyazetidin-1-yl)methyl)phenyl)imidazo[1,2-c]pyrimidine-2-carbonitrile] | > 7.00
16 | CNC(=O)c1ccc(-c2cnc(NCc3c(F)ccc4c3CCO4)n3cc(C#N)nc23)cc1 [Example 186, 4-(2-cyano-5-(((5-fluoro-2,3-dihydrobenzofuran-4-yl)methyl)amino)imidazo[1,2-c]pyrimidin-8-yl)-N-methylbenzamide] | > 7.00
17 | Cc1nc(C2CC2)ncc1-c1cnc(NCc2c(F)ccc3c2CCO3)n2cc(C(N)=O)nc12 [Example 15, 8-(2-cyclopropyl-4-methylpyrimidin-5-yl)-5-(((5-fluoro-2,3-dihydrobenzofuran-4-yl)methyl)amino)imidazo[1,2-c]pyrimidine-2-carboxamide] | 6.30 to 7.00
18 | N#Cc1cn2c(NCc3c(F)ccc4c3CCO4)ncc(-c3cnccn3)c2n1 [Example 68, 5-(((5-fluoro-2,3-dihydrobenzofuran-4-yl)methyl)amino)-8-(pyrazin-2-yl)imidazo[1,2-c]pyrimidine-2-carbonitrile] | > 7.00
19 | CNCc1ccc(-c2cnc(NCc3c(F)ccc4c3CCO4)n3cc(C#N)nc23)cc1F [Example 197, 5-(((5-fluoro-2,3-dihydrobenzofuran-4-yl)methyl)amino)-8-(3-fluoro-4-((methylamino)methyl)phenyl)imidazo[1,2-c]pyrimidine-2-carbonitrile] | > 7.00
20 | CC(C)n1cc(-c2cnc(NCc3c(F)ccc4c3CCO4)n3cc(C#N)nc23)cn1 [Example 99, 5-(((5-fluoro-2,3-dihydrobenzofuran-4-yl)methyl)amino)-8-(1-isopropyl-1H-pyrazol-4-yl)imidazo[1,2-c]pyrimidine-2-carbonitrile] | > 7.00
21 | CN(C)CCCn1cc(-c2cnc(NCc3c(F)ccc4c3CCO4)n3cc(C#N)nc23)cn1 [Example 103, 8-(1-(3-(dimethylamino)propyl)-1H-pyrazol-4-yl)-5-(((5-fluoro-2,3-dihydrobenzofuran-4-yl)methyl)amino)imidazo[1,2-c]pyrimidine-2-carbonitrile] | 6.30 to 7.00
22 | N#Cc1cn2c(NCc3c(F)ccc4c3CCO4)ncc(-c3cncc(F)c3)c2n1 [Example 97, 5-(((5-fluoro-2,3-dihydrobenzofuran-4-yl)methyl)amino)-8-(5-fluoropyridin-3-yl)imidazo[1,2-c]pyrimidine-2-carbonitrile] | > 7.00
23 | Cc1ncccc1-c1cnc(NCc2c(F)ccc3occc23)n2cc(C(N)=O)nc12 [Example 12, 5-(((5-fluorobenzofuran-4-yl)methyl)amino)-8-(2-methylpyridin-3-yl)imidazo[1,2-c]pyrimidine-2-carboxamide] | > 7.00
24 | CCOP(=O)(OCC)c1ccc(-c2cnc(NCc3c(F)ccc4c3CCO4)n3cc(C#N)nc23)cc1 [Example 164, diethyl (4-(2-cyano-5-(((5-fluoro-2,3-dihydrobenzofuran-4-yl)methyl)amino)imidazo[1,2-c]pyrimidin-8-yl)phenyl)phosphonate] | > 7.00
25 | COc1cncc(-c2cnc(NCc3c(F)ccc4c3CCO4)n3cc(C#N)nc23)c1 [Example 93, 5-(((5-fluoro-2,3-dihydrobenzofuran-4-yl)methyl)amino)-8-(5-methoxypyridin-3-yl)imidazo[1,2-c]pyrimidine-2-carbonitrile] | 6.30 to 7.00
26 | N#Cc1cn2c(NCc3c(F)ccc4c3CCO4)ncc(-c3ccc(C4CC4)nc3)c2n1 [Example 116, 8-(6-cyclopropylpyridin-3-yl)-5-(((5-fluoro-2,3-dihydrobenzofuran-4-yl)methyl)amino)imidazo[1,2-c]pyrimidine-2-carbonitrile] | > 7.00
27 | Cc1c(-c2cnc(NCc3c(F)ccc4c3CCO4)n3cc(C(=O)O)nc23)cnn1C(C)C [Example 8, 5-(((5-fluoro-2,3-dihydrobenzofuran-4-yl)methyl)amino)-8-(1-isopropyl-5-methyl-1H-pyrazol-4-yl)imidazo[1,2-c]pyrimidine-2-carboxylic acid] | > 7.00
28 | Cc1ncc(-c2cnc(NCc3c(F)ccc4c3CCO4)n3cc(C#N)nc23)cn1 [Example 69, 5-(((5-fluoro-2,3-dihydrobenzofuran-4-yl)methyl)amino)-8-(2-methylpyrimidin-5-yl)imidazo[1,2-c]pyrimidine-2-carbonitrile] | > 7.00
29 | N#Cc1cn2c(NCc3c(F)ccc4c3CCO4)ncc(-c3ccc(CO)nc3)c2n1 [Example 147, 5-(((5-fluoro-2,3-dihydrobenzofuran-4-yl)methyl)amino)-8-(6-(hydroxymethyl)pyridin-3-yl)imidazo[1,2-c]pyrimidine-2-carbonitrile] | 6.30 to 7.00
30 | Cc1nc(-c2cnc(NCc3c(F)ccc4c3CCO4)n3cc(C#N)nc23)c(C)s1 [Example 145, 8-(2,5-dimethylthiazol-4-yl)-5-(((5-fluoro-2,3-dihydrobenzofuran-4-yl)methyl)amino)imidazo[1,2-c]pyrimidine-2-carbonitrile] | 6.30 to 7.00
